# Values quoted from earlier work, collected in US20080032891A1, “DEFOLIANT COMPOSITION AND METHOD” (ARYSTA L[…] AMERICA CORPORATION, priority 2006, published 2008).
row,Structure (SMILES),solubility in water
1,"O=C(Nc1ccccc1)Nc1cnns1 [Thidiazuron, 1-phenyl-3-(1,2,3-thiadiazol-5-yl)-urea]",insoluble in water
2,"CN(C)C(=O)Nc1ccc(Cl)c(Cl)c1 [diuron, 3-(3,4-dichlorophenyl)-1,1-dimethylurea]",insoluble in water
